Results as given in ChEMBL document CHEMBL1201862, “PubChem BioAssay data set” (2004).
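Briefly, cells in 96-well plates were exposed to five compound concentrations for 48 h, and endpoints were estimated by linear interpolation. The concentration for 50% growth inhibition is given as GI50.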 The source made the active and inactive calls. No stated cut-off is given here; in the data, active = GI50 up to about 1.1 µM and inactive = higher. Where a SMILES comes first, the peptide text is derived from it. The star is where a group is joined. Boc = CC(C)(C)OC(=O)*

Experiments:
Test in all cases: growth of human tumour cells (NCI), 48 h
DU-145 = tested on: DU-145
TK-10 = tested on: TK-10
NCI-H23 = tested on: NCI-H23
COLO 205 = tested on: COLO 205
NCI-H460 = tested on: NCI-H460
MOLT-4 = tested on: MOLT-4
SK-MEL-5 = tested on: SK-MEL-5
KM12 = tested on: KM12
RXF 393 = tested on: RXF 393
OVCAR-5 = tested on: OVCAR-5
SK-OV-3 = tested on: SK-OV-3
K562 = tested on: K562
SK-MEL-2 = tested on: SK-MEL-2
HOP-92 = tested on: HOP-92
SF-539 = tested on: SF-539
CAKI-1 = tested on: CAKI-1
786-0 = tested on: 786-0
HCC 2998 = tested on: HCC 2998
RPMI-8226 = tested on: RPMI-8226

SMILES | GI50 (DU-145) | GI50 (TK-10) | GI50 (NCI-H23) | GI50 (COLO 205) | GI50 (NCI-H460) | GI50 (MOLT-4) | GI50 (SK-MEL-5) | GI50 (KM12) | GI50 (RXF 393) | GI50 (OVCAR-5) | GI50 (SK-OV-3) | GI50 (K562) | GI50 (SK-MEL-2) | GI50 (HOP-92) | GI50 (SF-539) | GI50 (CAKI-1) | GI50 (786-0) | GI50 (HCC 2998) | GI50 (RPMI-8226)
C(CCCCc1nnc(N2CCOCC2)o1)CCCc1nnc(N2CCOCC2)o1 | > 100 µM (inactive) | > 100 µM (inactive) | > 100 µM (inactive) | > 100 µM (inactive) | > 100 µM (inactive) | > 100 µM (inactive) | > 100 µM (inactive) | > 100 µM (inactive) | > 100 µM (inactive) | > 100 µM (inactive) | > 100 µM (inactive) | > 100 µM (inactive) | > 100 µM (inactive) | > 100 µM (inactive) | > 100 µM (inactive) | > 100 µM (inactive) | > 100 µM (inactive) |  | 
CCCCCCCCCCCCn1c(=O)cc(NCCCC)c2cc3c(NCCCC)cc(=O)n(CCCCCCCCCCCC)c3nc21 | > 100 µM (inactive) | > 100 µM (inactive) | > 100 µM (inactive) | > 100 µM (inactive) | > 100 µM (inactive) | > 100 µM (inactive) | > 100 µM (inactive) | > 100 µM (inactive) |  |  | > 100 µM (inactive) | > 100 µM (inactive) | > 100 µM (inactive) | > 100 µM (inactive) |  | > 100 µM (inactive) | > 100 µM (inactive) | > 100 µM (inactive) | > 100 µM (inactive)
Cc1ccc(NC(=O)CC2Sc3ccccc3NC2=O)cc1C (stereo not given) |  | > 100 µM (inactive) | > 100 µM (inactive) | 65.2 µM (inactive) | 58.6 µM (inactive) | 8.22 µM (inactive) | 41.4 µM (inactive) | 90.4 µM (inactive) | 29.9 µM (inactive) | > 100 µM (inactive) | > 100 µM (inactive) | 28.2 µM (inactive) | > 100 µM (inactive) | 26 µM (inactive) | 85.3 µM (inactive) | 85.9 µM (inactive) |  | > 100 µM (inactive) | > 100 µM (inactive)
Nc1c(Cl)ncnc1NCCCNc1ncnc(Cl)c1N |  | > 100 µM (inactive) | 53.8 µM (inactive) | > 100 µM (inactive) | > 100 µM (inactive) | > 100 µM (inactive) | > 100 µM (inactive) | > 100 µM (inactive) | > 100 µM (inactive) | > 100 µM (inactive) | > 100 µM (inactive) | > 100 µM (inactive) | > 100 µM (inactive) | > 100 µM (inactive) | > 100 µM (inactive) | > 100 µM (inactive) | > 100 µM (inactive) | > 100 µM (inactive) | > 100 µM (inactive)
O=C1NC(=O)C2C(=O)NC(=O)C1C2Cc1ccco1 (stereo not given) |  | > 100 µM (inactive) | > 100 µM (inactive) | > 100 µM (inactive) | > 100 µM (inactive) | > 100 µM (inactive) | > 100 µM (inactive) | > 100 µM (inactive) | > 100 µM (inactive) | > 100 µM (inactive) | > 100 µM (inactive) | > 100 µM (inactive) | > 100 µM (inactive) | > 100 µM (inactive) | > 100 µM (inactive) | > 100 µM (inactive) | > 100 µM (inactive) | > 100 µM (inactive) | > 100 µM (inactive)
Cc1ccc(S(=O)(=O)OC2CSSCC2OS(=O)(=O)c2ccc(C)cc2)cc1 (stereo not given) |  | 15.3 µM (inactive) | 17.9 µM (inactive) | 13.7 µM (inactive) | 17.7 µM (inactive) | 2.59 µM (inactive) | 15.7 µM (inactive) | 14.1 µM (inactive) | 20.9 µM (inactive) | 23.4 µM (inactive) | 20.5 µM (inactive) | 14.9 µM (inactive) | 15.7 µM (inactive) | 11.4 µM (inactive) | 10.5 µM (inactive) | 12.5 µM (inactive) | 12.6 µM (inactive) | 20.9 µM (inactive) | 13.2 µM (inactive)
COC(=O)C(Cc1c[nH]c2ccccc12)NC(=O)C(Cc1c[nH]c2ccccc12)NC(=O)C(Cc1c[nH]c2ccccc12)NC(=O)C(Cc1c[nH]c2ccccc12)NC(=O)C(Cc1c[nH]c2ccccc12)NC(=O)C(Cc1c[nH]c2ccccc12)NC(=O)C(Cc1c[nH]c2ccccc12)NC(=O)OC(C)(C)C (stereo not given) (Boc-WWWWWWW-OMe; configuration not given here) | 64 µM (inactive) | 43.6 µM (inactive) | 64.1 µM (inactive) |  | > 100 µM (inactive) | 40.6 µM (inactive) | 20.9 µM (inactive) |  |  | 42.4 µM (inactive) |  | 64.1 µM (inactive) | 17.1 µM (inactive) |  |  | > 100 µM (inactive) | 26.3 µM (inactive) | > 100 µM (inactive) | 46.7 µM (inactive)
Cc1ccc(C(=O)c2[nH]c(NCc3ccccc3)c(C(=S)Nc3ccccc3)c2N)cc1 | 13.8 µM (inactive) | 11.2 µM (inactive) | 13.3 µM (inactive) | 3.87 µM (inactive) | 5.64 µM (inactive) | 2.83 µM (inactive) |  | 2.28 µM (inactive) | 5.78 µM (inactive) | 14 µM (inactive) | 2.77 µM (inactive) | 2.13 µM (inactive) | 10.8 µM (inactive) | 6.58 µM (inactive) | 2.86 µM (inactive) | 14.3 µM (inactive) | 5.9 µM (inactive) | 1.29 µM (inactive) | 2.15 µM (inactive)
COc1ccc(OC)c(/C=C(/C#N)c2ccccc2)c1 |  | 28.4 µM (inactive) | 23.5 µM (inactive) | 20.5 µM (inactive) | 15.8 µM (inactive) | 12.9 µM (inactive) | 13.2 µM (inactive) | 10 µM (inactive) | 10.2 µM (inactive) | 56 µM (inactive) | 50 µM (inactive) | 3.15 µM (inactive) | 5.82 µM (inactive) | 17.7 µM (inactive) | 28.2 µM (inactive) | 35.1 µM (inactive) | 19 µM (inactive) | > 10 µM (inactive) | 13.4 µM (inactive)
O=C(CCN1CCN(c2cccc(Cl)c2)CC1)N1CCc2c([nH]c3ccccc23)C1c1cccnc1 (stereo not given) |  | 4.01 µM (inactive) | 7.89 µM (inactive) | 3.66 µM (inactive) | 4.05 µM (inactive) | 2.95 µM (inactive) | 6.25 µM (inactive) | 3.05 µM (inactive) | 7.4 µM (inactive) | 4.72 µM (inactive) | 6.59 µM (inactive) | 2.78 µM (inactive) | 6.12 µM (inactive) | 1.9 µM (inactive) | 13.7 µM (inactive) | 3.8 µM (inactive) | 4.89 µM (inactive) | 1.91 µM (inactive) | 4.72 µM (inactive)
CC(=O)OC1COC(n2nc(N)nc2C)C(OC(C)=O)C1OC(C)=O (stereo not given) | > 100 µM (inactive) | > 100 µM (inactive) | > 100 µM (inactive) | > 100 µM (inactive) | > 100 µM (inactive) | > 100 µM (inactive) | > 100 µM (inactive) | > 100 µM (inactive) | > 100 µM (inactive) | > 100 µM (inactive) | > 100 µM (inactive) | > 100 µM (inactive) | > 100 µM (inactive) | > 100 µM (inactive) |  | > 100 µM (inactive) | > 100 µM (inactive) | > 100 µM (inactive) | > 100 µM (inactive)
CN(C(=O)C1=CCC2(CC1)OCCO2)c1ccccc1I | > 100 µM (inactive) | > 100 µM (inactive) | > 100 µM (inactive) | > 100 µM (inactive) | > 100 µM (inactive) | > 100 µM (inactive) | > 100 µM (inactive) | > 100 µM (inactive) |  | > 100 µM (inactive) | > 100 µM (inactive) | > 100 µM (inactive) | > 100 µM (inactive) | > 100 µM (inactive) |  | > 100 µM (inactive) | > 100 µM (inactive) | > 100 µM (inactive) | > 100 µM (inactive)
CC(OC1CC(=O)CC2C(=O)C=CC(=O)C12)c1ccccc1 (stereo not given) |  | 17.8 µM (inactive) | 18.1 µM (inactive) | 16.9 µM (inactive) | > 42.9 µM (inactive) | 4.97 µM (inactive) | 18.8 µM (inactive) | 16.6 µM (inactive) | 18.9 µM (inactive) | 17.6 µM (inactive) | > 42.2 µM (inactive) | 3.31 µM (inactive) | 19.7 µM (inactive) | 1.42 µM (inactive) | 19.8 µM (inactive) | 16.9 µM (inactive) | 13.9 µM (inactive) | 16.1 µM (inactive) | 17.3 µM (inactive)
Sc1nnc(COc2ccc(Cl)cc2Cl)[nH]1 |  | > 100 µM (inactive) | > 100 µM (inactive) |  | > 100 µM (inactive) | > 100 µM (inactive) | > 100 µM (inactive) |  | > 100 µM (inactive) | > 100 µM (inactive) |  | > 100 µM (inactive) | > 100 µM (inactive) | > 100 µM (inactive) | > 100 µM (inactive) | > 100 µM (inactive) | > 100 µM (inactive) | > 100 µM (inactive) | > 100 µM (inactive)
COc1cc(O)c2c(=O)c(O)c(-c3ccc(O)c(O)c3)oc2c1 [RHAMNETIN] | 4.13 µM (inactive) | 21.4 µM (inactive) |  | 13.5 µM (inactive) | 4.25 µM (inactive) | 6.95 µM (inactive) | 10.5 µM (inactive) |  |  | 19.7 µM (inactive) | 20 µM (inactive) | 9.53 µM (inactive) |  | 10.5 µM (inactive) |  | 1.09 µM (active) |  | 14 µM (inactive) | 6.73 µM (inactive)
COc1cccc(NC(=O)/C(CS(=O)(=O)CCC(C(C)=O)C(C)=O)=N/NC(C)(C)C)c1 |  | > 100 µM (inactive) | > 100 µM (inactive) | > 100 µM (inactive) | > 100 µM (inactive) | > 100 µM (inactive) | > 100 µM (inactive) | > 100 µM (inactive) | > 100 µM (inactive) | > 100 µM (inactive) | > 100 µM (inactive) | > 100 µM (inactive) | > 100 µM (inactive) | > 100 µM (inactive) | > 100 µM (inactive) | > 100 µM (inactive) | > 100 µM (inactive) | > 100 µM (inactive) | > 100 µM (inactive)
